Structures can show the parent of a compound that is named as a salt.
These compounds were tested against T1, human 11β-HSD1 enzyme (Homo sapiens, UniProt P28845) (assay: Cellular in vitro 11β-HSD1 enzyme inhibition assay (SPA, HEK293/11β-HSD1 cells)). Settings: HEK293, less than or equal to 1000 nM (1 μM).
T1 construct: stably transfected with a construct containing the full-length gene coding for the human 11β-HSD1 enzyme; expressed in transfected cells; host or cells: HEK293 (HEK293/11β-HSD1 cells)
Format: cell-based
Procedure: Cellular In Vitro 11β-HSD1 Enzyme Inhibition Assay
Compounds were assessed by a Scintillation Proximity Assay (SPA) performed according to the following protocol:
HEK293 cells were stably transfected with a construct containing the full-length gene coding for the human 11β-HSD1 enzyme to create HEK293/11β-HSD1 cells. Cells were routinely cultured in DMEM containing 10% calf foetal serum, 1% glutamine, and 1% penicillin and streptomycin. Prior to assay, cells were plated at 2×10^4 cells/well in 96-well poly-D-Lys coated flat-bottomed microplates and incubated in 5% CO2, 95% O2 at 37° C. for 24 hours. The media in each well was removed immediately before assay.
Compounds to be tested were dissolved in DMSO at 10 mM and serially diluted into water containing 10% DMSO. Diluted compounds at a volume of 10 μL were added to wells of a 96-well V-bottomed microplate. […] This solution (100 μL/well) was transferred to the plate containing the cells. The plate was then incubated in 5% CO2, 95% O2 at 37° C. for 2 hours.
Following this incubation, 50 μL of the assay solution was transferred to each well of a 96-well scintillation microplate. A mixture consisting of anti-mouse YSi SPA beads, pre-mixed with anti-cortisol antibody in assay buffer (50 mM Tris.HCl, pH 7.0; 300 mM NaCl; 1 mM EDTA, 5% glycerol) was prepared and 50 μL added to each well of the scintillation microplate. An adhesive strip was applied to the microplate and the plate gently shaken for at least 2 hours at room temperature, and then spun briefly on a low speed centrifuge. The plate was read on a scintillation counter suitable for 96-well microplates. For the calculation of percentage inhibition, a series of wells were added to the plate that represented the assay maximum and the assay minimum: one set that contained substrate without cells (mimimum) and another set that contained substrate and cells without any compound (maximum).
The calculation of median inhibitory concentration (IC50) values for the compounds was performed using GraphPad Prism® software. Dose-response curves for each compound were plotted as fractional inhibition and data fitted to the four parameter logistic equation.

T1 sequence (P28845 whole entry): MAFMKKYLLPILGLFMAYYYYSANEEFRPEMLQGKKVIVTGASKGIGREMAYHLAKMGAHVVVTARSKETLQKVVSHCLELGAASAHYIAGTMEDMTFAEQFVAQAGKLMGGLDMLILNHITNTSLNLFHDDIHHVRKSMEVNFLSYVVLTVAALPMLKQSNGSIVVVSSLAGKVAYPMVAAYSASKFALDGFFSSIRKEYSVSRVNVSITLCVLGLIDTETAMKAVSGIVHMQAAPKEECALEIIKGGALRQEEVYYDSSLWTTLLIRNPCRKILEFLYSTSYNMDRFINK

| Compound | IC50 [µM] |
| --- | --- |
| CC(=O)N1CCC(c2cc(C(=O)N3CCCCC(C)(C)C3)cs2)CC1 [CC-026] | ≤ 1 |
| CCc1cc(C(=O)N2CC3CC4CC(C3)CC2C4)cs1 [AA-015] | ≤ 1 |
| CC1(C)CC2CC(C)(CN2C(=O)c2csc(C3CCCCC3)c2)C1 (centres unmarked) [DD-005] | ≤ 1 |
| CC1(C)CCCN(C(=O)c2csc(C3CCN(C(=O)CCNS(C)(=O)=O)CC3)c2)CC1 [CC-097] | ≤ 1 |
| NC(=O)CN1CCC(c2cc(C(=O)N3CCCC4CCCCC43)cs2)CC1 (centres unmarked) [CC-108] | ≤ 1 |
| CS(=O)(=O)NCC(=O)N1CCC(c2cc(C(=O)N3CCCC4CCCCC43)cs2)CC1 (centres unmarked) [CC-148] | ≤ 1 |
| CC1(C)CC2CC(C)(CN2C(=O)c2csc(C3CCNCC3)c2)C1 (centres unmarked) [CC-072] | ≤ 1 |
| O=C(c1csc(C2CCOCC2)c1)N1CCC[C@@H]2CCCC[C@@H]21 (racemic) [CC-027, cis-(octahydro-quinolin-1-yl)-[5-(tetrahydro-pyran-4-yl)-thiophen-3-yl]-methanone] | ≤ 1 |
| O=C1CCCN1c1cc(C(=O)N2CCCC3CCCCC32)cs1 (centres unmarked) [CC-049] | ≤ 1 |
| CC(=O)N1CCC(c2cc(C(=O)N3CCC[C@@H]4CCCC[C@@H]43)cs2)CC1 (relative stereo) [CC-035, cis-1-{4-[4-(Octahydro-quinoline-1-carbonyl)-thiophen-2-yl]-piperidin-1-yl}-ethanone] | ≤ 1 |
| CC1(C)CC2CC(C)(CN2C(=O)c2csc(CC(F)(F)F)c2)C1 (centres unmarked) [AA-018] | ≤ 1 |
| O=C(c1csc(C2=CCNCC2)c1)N1CCCC2CCCCC21 (centres unmarked) [CC-047] | ≤ 1 |
| CC1(C)CC2CC(C)(CN2C(=O)c2csc(C3CCCNC3)c2)C1 (centres unmarked) [CC-073] | ≤ 1 |
| CCc1cc(C(=O)N2C3CCCC2CC3)cs1 [AA-016] | ≤ 1 |
| CS(=O)(=O)N1CCC(c2cc(C(=O)N3CCC[C@@H]4CCCC[C@@H]43)cs2)CC1 (relative stereo) [CC-065, cis-[5-(1-Methanesulfonyl-piperidin-4-yl)-thiophen-3-yl]-(octahydro-quinolin-1-yl)-methanone] | ≤ 1 |
| Cc1ccccc1OCc1cc(C(=O)N2CCCCC2)cs1 [BB-002, Piperidin-1-yl-(5-o-tolyloxymethyl-thiophen-3-yl)-methanone] | ≤ 1 |
| O=C(CO)N1CCC(c2cc(C(=O)N3CCC[C@@H]4CCCC[C@@H]43)cs2)CC1 (relative stereo) [CC-053, cis-2-Hydroxy-1-{4-[4-(octahydro-quinoline-1-carbonyl)-thiophen-2-yl]-piperidin-1-yl}-ethanone] | ≤ 1 |
| Cn1ccnc1CN1CCC(c2cc(C(=O)N3CCCC4CCCCC43)cs2)CC1 (centres unmarked) [CC-154] | ≤ 1 |
| O=C(NCCO)N1CCC(c2cc(C(=O)N3CCCC4CCCCC43)cs2)CC1 (centres unmarked) [CC-173] | ≤ 1 |
| O=C(c1csc(C2CCSCC2)c1)N1CCCC2CCCCC21 (centres unmarked) [CC-136] | ≤ 1 |
| CCc1cc(C(=O)N2CCCC3CCCCC32)c(Cl)s1 (centres unmarked) [AA-013] | ≤ 1 |
| CC(C)(C(N)=O)N1CCC(c2cc(C(=O)N3CCCC4CCCCC43)cs2)CC1 (centres unmarked) [CC-174] | ≤ 1 |
| O=C(c1csc(CC(F)(F)F)c1)N1CCC[C@@H]2CCCC[C@@H]21 (relative stereo) [AA-012, cis-(Octahydro-quinolin-1-yl)-[5-(2,2,2-trifluoro-ethyl)-thiophen-3-yl]-methanone] | ≤ 1 |

Same assay, conditions: HEK293, more than 1000 nM (1.0 μM) and less than or equal to 30 μM

| Compound | IC50 [µM] |
| --- | --- |
| O=C1CCCN1CCCN1CCC(c2cc(C(=O)N3CCCC4CCCCC43)cs2)CC1 (stereo not drawn) [CC-156, cis-{1-(3-{4-[4-(Octahydro-quinoline-1-carbonyl)-thiophen-2-yl]-piperidin-1-yl}-propyl)-pyrrolidin-2-one] | 1 to 30 |
| O=C(c1csc(C2CCNCC2)c1)N1CCN2CCC[C@H]2C1 [CC-041] | 1 to 30 |
| CNCC(=O)N1CCC(c2cc(C(=O)N3CCC[C@@H]4CCCC[C@@H]43)cs2)CC1 (relative stereo) [CC-055, cis-2-Methylamino-1-{4-[4-(octahydro-quinoline-1-carbonyl)-thiophen-2-yl]-piperidin-1-yl}-ethanone] | 1 to 30 |
| CC(=O)N1CCC(c2cc(C(=O)N3CCCC4CCCCC43)cs2)CC1 (centres unmarked) [CC-036] | 1 to 30 |
| CC1(C)CCCN(C(=O)c2csc(C3CCNCC3)c2)CC1 [CC-023, (4,4-dimethyl-azepan-1-yl)-(5-piperidin-4-yl-thiophen-3-yl)-methanone] | 1 to 30 |
| O=C(c1csc(C2CCN(CCS(=O)(=O)N3CCCC3)CC2)c1)N1CCCC2CCCCC21 (centres unmarked) [CC-087] | 1 to 30 |
| O=C(c1csc(C2CCN(CCO)CC2)c1)N1CCC[C@@H]2CCCC[C@@H]21 (racemic) [CC-088, cis-1-(2-Hydroxy-ethyl)-4-[4-(octahydro-quinoline-1-carbonyl)-thiophen-2-yl]-piperidinium formate] | 1 to 30 |
| CN(C)CCNC(=O)N1CCC(c2cc(C(=O)N3CCCC4CCCCC43)cs2)CC1 (centres unmarked) [CC-162] | 1 to 30 |
| O=C(c1csc(COc2ccccc2)c1)N1CCCCC1 [BB-001] | 1 to 30 |
| CC1(C)CC2CC(C)(CN2C(=O)c2csc(C3CCNCC3)c2)C1 (single isomer, unassigned) [CC-076, (5-Piperidin-4-yl-thiophen-3-yl)-(1,3,3-trimethyl-6-aza-bicyclo[3.2.1]oct-6-yl)-methanone] | 1 to 30 |
| CN(C)CC(=O)N1CCC(c2cc(C(=O)N3CCCC4CCCCC43)cs2)CC1 (centres unmarked) [CC-063] | 1 to 30 |
| O=C(c1csc(C2CCCCC2)c1)N1CCCC2(CCCCC2)C1 [DD-006] | 1 to 30 |
| O=C(c1csc(COc2ccc(-n3cncn3)cc2)c1)N1CCCCC1 [BB-004] | 1 to 30 |
| CC1(C)CCCN(C(=O)c2csc(C3CCNCC3)c2)C1 [CC-013] | 1 to 30 |
| COCCCN1CCC(c2cc(C(=O)N3CCCC4CCCCC43)cs2)CC1 (centres unmarked) [CC-089] | 1 to 30 |
| CC1(C)CCCN(C(=O)c2csc(C3=CCNCC3)c2)CC1 [CC-124] | 1 to 30 |
| O=C(c1csc(C2CCNCC2)c1)N1CCCCCC1 [CC-008, Azepan-1-yl-(5-piperidin-4-yl-thiophen-3-yl)-methanone] | 1 to 30 |
| CC(=O)N1CC=C(c2cc(C(=O)N3CCCCCC3)cs2)CC1 [CC-016, 1-{4-[4-(Azepane-1-carbonyl)-thiophen-2-yl]-3,6-dihydro-2H-pyridin-1-yl}-ethanone] | 1 to 30 |
| COCc1cc(C(=O)N2CCCCCC2)cs1 [BB-005] | 1 to 30 |
| CCc1cc(C(=O)N2CCCC(F)(F)CC2)cs1 [AA-020] | 1 to 30 |
| COCCCC(=O)N1CCC(c2cc(C(=O)N3CCCC4CCCCC43)cs2)CC1 (centres unmarked) [CC-085] | 1 to 30 |
| CC(=O)N1CCC(c2cc(C(=O)N3CCCCC3c3ccccc3)cs2)CC1 (centres unmarked) [CC-098] | 1 to 30 |
| CCc1cc(C(=O)N2CCCCCC2)c(C#N)s1 [AA-006] | 1 to 30 |
| Cc1cc(C(=O)N2CCC(c3cc(C(=O)N4CCCC5CCCCC54)cs3)CC2)no1 (centres unmarked) [CC-109] | 1 to 30 |
| O=C(c1csc(C2CCOCC2)c1)N1CCCC(F)(F)CC1 | 1 to 30 |
| O=C(c1csc(C2CCN(CC(F)(F)F)CC2)c1)N1CCC[C@@H]2CCCC[C@@H]21 (relative stereo) [CC-172, cis-(Octahydro-quinolin-1-yl)-{5-[1-(2,2,2-trifluoro-ethyl)-piperidin-4-yl]-thiophen-3-yl}-methanone] | 1 to 30 |
| O=C(CCN1CCCCC1)N1CCC(c2cc(C(=O)N3CCCC4CCCCC43)cs2)CC1 (centres unmarked) [CC-062] | 1 to 30 |

— US8362008B2 (The University Of Edinburgh, priority 2007, dated 2013)
